Measurements from patent US10858410B2, “Glycosylated peptides with pseudoproline residues and having enhanced half-lives and ability to cross the blood brain barrier” (ARIZONA BOARD OF REGENTS ON BEHALF OF THE UNIVERSITY OF …, priority 2015, dated 2020).
Entries after “also recorded” stand apart in the source; their conditions may differ. No end group written: not given here.

Tests used:
[1] = in vivo, ip
PC12 cells = test: Differentiation of cultured PC12 cells; format: cell-based; settings: 100 nM, compared to vehicle treated cells, qualitative
Method: The PC12 cells were cultured in RPMI containing 5% heat inactivated fetal bovine serum and 10% horse serum in the presence of 100 units/mL penicillin and 100 microgram/mL streptomycin. The cells were plated on poly-D-Lysine coated 6-well tissue culture plates at a density of 150,000 cells per well in 2 mL media. After 48 hours at 37° C. in 5% CO2 atmosphere, media exchange was performed and plates were dosed, using the peptide diluent (water) for the control samples. […] Cell images of each treatment group were captured and compared to the control cells to screen for differentiation and cell body volume increases. Cells having neurite-like process outgrowth were noted and photographed. The neurite-like outgrowth was deemed positive if its length was at least two times the width of the cell body.

human PAC1 receptors [2] = target: T1, human PAC1 receptors (Homo sapiens, UniProt P41586); test: FLIPR calcium flux, antagonist variable concentration mode versus 5 nM PACAP1-27, PAC1-CHO cells; format: cell-based; settings: up to 1 μM
T1 construct: host or cells: CHO (clonal line PAC1-CHO)
T1 sequence (P41586 21-468): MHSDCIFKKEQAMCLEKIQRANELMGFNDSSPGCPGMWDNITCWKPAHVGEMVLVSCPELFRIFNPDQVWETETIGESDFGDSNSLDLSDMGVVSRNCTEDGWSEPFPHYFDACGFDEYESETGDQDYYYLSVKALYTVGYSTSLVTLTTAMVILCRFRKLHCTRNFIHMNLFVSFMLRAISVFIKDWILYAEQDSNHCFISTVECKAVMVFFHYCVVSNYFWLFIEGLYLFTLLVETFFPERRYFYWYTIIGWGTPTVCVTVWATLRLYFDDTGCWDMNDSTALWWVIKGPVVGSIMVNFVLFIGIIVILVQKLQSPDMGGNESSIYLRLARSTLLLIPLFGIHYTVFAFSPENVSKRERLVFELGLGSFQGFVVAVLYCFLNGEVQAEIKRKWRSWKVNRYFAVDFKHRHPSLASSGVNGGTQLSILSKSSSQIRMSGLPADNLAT
Method: A custom DNA clone of the human PAC1 gene with 3 hemagglutinin (HA) tags inserted 3′ to the signal peptide sequence (to avoid proteolytic loss) was obtained from Genecopoeia (Rockville, Md.). The construct was electroporated into Chinese Hamster Ovary (CHO) cells, and selected for with 500 μg/mL of G418. The resulting population was screened for high expressing clones, and one such clone selected for further analysis. […] This cell line was used for all molecular pharmacology experiments. The cells were maintained in DMEM/F12 with 10% heat-inactivated FBS, 1× penicillin/streptomycin, and 500 μg/mL G418, at 37° C. and 5% CO2.
All molecular pharmacology experiments were carried out using a FLIPR Tetra from Molecular Devices (Sunnyvale, Calif.), set to image calcium flux using the manufacturer's recommended settings and protocols. […] The resulting calcium flux was recorded, and the maximum-minimum response over the entire observation time calculated and reported as the mean±SEM (4 wells per point).
For antagonist mode experiments, a concentration curve (variable concentration mode) or fixed amount (fixed concentration mode) of antagonist was added to the cells, and allowed to equilibrate for 2 minutes. […] The resulting data was analyzed using a Gaddum/Schild EC50 shift model, (Schild, 1957, Gaddum, 1957) designed to analyze competitive antagonism. […]

human PAC1 receptors [3] = target: T1, human PAC1 receptors; test: FLIPR calcium flux, antagonist fixed concentration mode (Gaddum/Schild EC50 shift), PAC1-CHO cells; format: cell-based; settings: for shift of PACAP1-27 agonist curves: fixed concentrations of antagonist up to 1 μM
Method: A custom DNA clone of the human PAC1 gene with 3 hemagglutinin (HA) tags inserted 3′ to the signal peptide sequence (to avoid proteolytic loss) was obtained from Genecopoeia (Rockville, Md.). The construct was electroporated into Chinese Hamster Ovary (CHO) cells, and selected for with 500 μg/mL of G418. The resulting population was screened for high expressing clones, and one such clone selected for further analysis. […] This cell line was used for all molecular pharmacology experiments. […] All molecular pharmacology experiments were carried out using a FLIPR Tetra from Molecular Devices (Sunnyvale, Calif.), set to image calcium flux using the manufacturer's recommended settings and protocols. The day before an experiment, the PAC1-CHO cells were split into 384 well black walled, clear bottom microplates, 10,000 cells per well. The cells were recovered overnight in growth medium (as above). The next day, the growth medium was replaced with Calcium 6 dye (Molecular Devices) using the manufacturer recommended buffer with 2.5 mM probenecid. The cells were incubated for 2 hours in the culture incubator, and removed during the last 15 minutes to allow equilibration to room temperature. Compound as indicated below was added to the cells using a 384 tip block, with real time monitoring before, during, and 15 minutes after compound addition. The resulting calcium flux was recorded, and the maximum-minimum response over the entire observation time calculated and reported as the mean±SEM (4 wells per point). For antagonist mode experiments, a concentration curve (variable concentration mode) or fixed amount (fixed concentration mode) of antagonist was added to the cells, and allowed to equilibrate for 2 minutes. […] The resulting data was analyzed using a Gaddum/Schild EC50 shift model, (Schild, 1957, Gaddum, 1957) designed to analyze competitive antagonism. […] The pharmacology values are calculated separately from each experiment, then combined and reported as the mean±SEM for the entire set of experiments.

[4] = tested on: PACAP receptors in human neuroblastoma NB-OK-1 cell membranes; settings: Robberecht et al. 1992; read-out: reported Ki values; cited from earlier work

Compound	presence in mouse brain / crossing the blood brain barrier [1]	neurite-like process outgrowth / differentiation (PC12 cells)	antagonist activity at PAC1 (in words) (human PAC1 receptors [2])	Schild Slope (human PAC1 receptors [3]; fixed concentration mode)	shift of PACAP1-27 agonist curves (human PAC1 receptors [3])	Ki [4]
CC[C@H](C)[C@H](NC(=O)CNC(=O)[C@H](CC(=O)O)NC(=O)[C@H](CO)NC(=O)[C@@H](N)Cc1c[nH]cn1)C(=O)N[C@@H](Cc1ccccc1)C(=O)N[C@H](C(=O)N[C@@H](CC(=O)O)C(=O)N[C@@H](CO)C(=O)N[C@@H](Cc1ccc(O)cc1)C(=O)N[C@@H](CO)C(=O)N[C@@H](CCCNC(=N)N)C(=O)N[C@@H](Cc1ccc(O)cc1)C(=O)N[C@@H](CCCNC(=N)N)C(=O)N[C@@H](CCCCN)C(=O)N[C@@H](CCC(N)=O)C(=O)N[C@@H](CCSC)C(=O)N[C@@H](C)C(=O)N[C@H](C(=O)N[C@@H](CCCCN)C(=O)N[C@@H](CCCCN)C(=O)N[C@@H](Cc1ccc(O)cc1)C(=O)N[C@@H](CC(C)C)C(=O)N[C@@H](C)C(=O)N[C@@H](C)C(=O)N[C@H](C(=O)N[C@@H](CO[C@@H]1O[C@H](CO)[C@@H](O)[C@H](O)[C@H]1O)C(N)=O)C(C)C)C(C)C)[C@@H](C)O [PACAP1-27-S-G]	presence in mouse brain could be detected					
CC[C@H](C)[C@H](NC(=O)CNC(=O)[C@H](CC(=O)O)NC(=O)[C@H](CO)NC(=O)[C@@H](N)Cc1c[nH]cn1)C(=O)N[C@@H](Cc1ccccc1)C(=O)N[C@H](C(=O)N[C@@H](CC(=O)O)C(=O)N[C@@H](CO)C(=O)N[C@@H](Cc1ccc(O)cc1)C(=O)N[C@@H](CO)C(=O)N[C@@H](CCCNC(=N)N)C(=O)N[C@@H](Cc1ccc(O)cc1)C(=O)N[C@@H](CCCNC(=N)N)C(=O)N[C@@H](CCCCN)C(=O)N[C@@H](CCC(N)=O)C(=O)N[C@@H](CCSC)C(=O)N[C@@H](C)C(=O)N[C@H](C(=O)N[C@@H](CCCCN)C(=O)N[C@@H](CCCCN)C(=O)N[C@@H](Cc1ccc(O)cc1)C(=O)N[C@@H](CC(C)C)C(=O)N[C@@H](C)C(=O)N[C@@H](C)C(=O)N[C@H](C(=O)N[C@@H](CC(C)C)C(N)=O)C(C)C)C(C)C)[C@@H](C)O [PACAP1-27]		induced neurite outgrowth				
CSCC[C@H](NC(=O)[C@H](CCC(N)=O)NC(=O)[C@H](CCCCN)NC(=O)[C@H](CCCNC(=N)N)NC(=O)[C@H](Cc1ccc(O)cc1)NC(=O)[C@H](CCCNC(=N)N)NC(=O)[C@H](CO)NC(=O)[C@H](Cc1ccc(O)cc1)NC(=O)[C@H](CO)NC(=O)[C@H](CC(=O)O)NC(=O)[C@@H](NC(=O)[C@@H](N)Cc1ccccc1)[C@@H](C)O)C(=O)N[C@@H](C)C(=O)N[C@H](C(=O)N[C@@H](CCCCN)C(=O)N[C@@H](CCCCN)C(=O)N[C@@H](Cc1ccc(O)cc1)C(=O)N[C@@H](CC(C)C)C(=O)N[C@@H](C)C(=O)N[C@@H](C)C(=O)N[C@H](C(=O)N[C@@H](CC(C)C)C(=O)NCC(=O)N[C@@H](CCCCN)C(=O)N[C@@H](CCCNC(=N)N)C(=O)N[C@@H](Cc1ccc(O)cc1)C(=O)N[C@@H](CCCCN)C(=O)N[C@@H](CCC(N)=O)C(=O)N[C@@H](CCCNC(=N)N)C(=O)N[C@H](C(=O)N[C@@H](CCCCN)C(=O)N[C@@H](CC(N)=O)C(=O)N[C@@H](CCCCN)C(N)=O)C(C)C)C(C)C)C(C)C [PACAP6-38]			very weak antagonist activity; also recorded: shows antagonism, but it is low potency	2.0±0.1	induced a shift only at 1 μM; also recorded: shifts the curve only at the highest concentration (1 μM)	1.5 nM
FTDSY10SRYRKQMAVK20KYLAAVL (FTDSYSRYRKQMAVKKYLAAVL-NH2; ends and bridges not checked) [PACAP6-27]			no antagonist activity and none		caused no shift in the agonist curves; also recorded: no detectable shifts in the agonist curves	60 nM
